Experiments:
[1] = molecular target: T1, human Cereblon WT GST-tagged protein (Homo sapiens, UniProt Q96SW2); assay: CRBN-binding affinity, HTRF (CEREBLON BINDING kit); conditions: for inhibition at 0.5 µM: read-out: Inhibition Rate at 0.5 µM (%); for inhibition at 2 µM: read-out: Inhibition Rate at 2 µM (%)
T1 construct: purchased CISBIO 64BDCRBNPEH

[2] = molecular target: T2, CK1α (Homo sapiens, UniProt P48729+Q96SW2); assay: Western blot, degradation of substrate protein in hPBMCs; format: cell-based
T2 construct: effects of the compounds of the present disclosure on the expression of target proteins in cells; endogenous in cells; host or cells: human PBMCs (Milecell Biotechnologies)
T2 sequence (P48729 whole entry): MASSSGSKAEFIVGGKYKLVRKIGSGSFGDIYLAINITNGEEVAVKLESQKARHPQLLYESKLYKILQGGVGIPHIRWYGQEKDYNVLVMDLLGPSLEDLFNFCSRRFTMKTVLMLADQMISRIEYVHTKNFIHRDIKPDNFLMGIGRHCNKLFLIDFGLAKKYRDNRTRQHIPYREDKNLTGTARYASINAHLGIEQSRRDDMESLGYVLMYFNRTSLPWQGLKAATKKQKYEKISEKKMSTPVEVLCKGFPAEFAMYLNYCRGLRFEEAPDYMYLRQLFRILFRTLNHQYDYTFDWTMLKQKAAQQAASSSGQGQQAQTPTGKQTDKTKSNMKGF
T2 sequence (Q96SW2 whole entry): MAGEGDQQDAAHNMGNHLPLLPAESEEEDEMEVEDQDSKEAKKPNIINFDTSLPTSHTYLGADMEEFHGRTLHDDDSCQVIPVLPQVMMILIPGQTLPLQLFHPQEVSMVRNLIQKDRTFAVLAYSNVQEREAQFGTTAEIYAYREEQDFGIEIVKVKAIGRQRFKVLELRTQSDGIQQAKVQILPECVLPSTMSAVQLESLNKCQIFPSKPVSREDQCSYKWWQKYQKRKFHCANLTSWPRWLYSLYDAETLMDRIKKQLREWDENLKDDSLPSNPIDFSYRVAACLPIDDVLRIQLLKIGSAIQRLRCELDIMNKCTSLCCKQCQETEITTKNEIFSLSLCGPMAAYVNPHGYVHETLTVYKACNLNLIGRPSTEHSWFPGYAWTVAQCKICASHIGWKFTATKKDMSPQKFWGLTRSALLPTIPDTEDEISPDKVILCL
T2 sequence (Q16531 whole entry partner): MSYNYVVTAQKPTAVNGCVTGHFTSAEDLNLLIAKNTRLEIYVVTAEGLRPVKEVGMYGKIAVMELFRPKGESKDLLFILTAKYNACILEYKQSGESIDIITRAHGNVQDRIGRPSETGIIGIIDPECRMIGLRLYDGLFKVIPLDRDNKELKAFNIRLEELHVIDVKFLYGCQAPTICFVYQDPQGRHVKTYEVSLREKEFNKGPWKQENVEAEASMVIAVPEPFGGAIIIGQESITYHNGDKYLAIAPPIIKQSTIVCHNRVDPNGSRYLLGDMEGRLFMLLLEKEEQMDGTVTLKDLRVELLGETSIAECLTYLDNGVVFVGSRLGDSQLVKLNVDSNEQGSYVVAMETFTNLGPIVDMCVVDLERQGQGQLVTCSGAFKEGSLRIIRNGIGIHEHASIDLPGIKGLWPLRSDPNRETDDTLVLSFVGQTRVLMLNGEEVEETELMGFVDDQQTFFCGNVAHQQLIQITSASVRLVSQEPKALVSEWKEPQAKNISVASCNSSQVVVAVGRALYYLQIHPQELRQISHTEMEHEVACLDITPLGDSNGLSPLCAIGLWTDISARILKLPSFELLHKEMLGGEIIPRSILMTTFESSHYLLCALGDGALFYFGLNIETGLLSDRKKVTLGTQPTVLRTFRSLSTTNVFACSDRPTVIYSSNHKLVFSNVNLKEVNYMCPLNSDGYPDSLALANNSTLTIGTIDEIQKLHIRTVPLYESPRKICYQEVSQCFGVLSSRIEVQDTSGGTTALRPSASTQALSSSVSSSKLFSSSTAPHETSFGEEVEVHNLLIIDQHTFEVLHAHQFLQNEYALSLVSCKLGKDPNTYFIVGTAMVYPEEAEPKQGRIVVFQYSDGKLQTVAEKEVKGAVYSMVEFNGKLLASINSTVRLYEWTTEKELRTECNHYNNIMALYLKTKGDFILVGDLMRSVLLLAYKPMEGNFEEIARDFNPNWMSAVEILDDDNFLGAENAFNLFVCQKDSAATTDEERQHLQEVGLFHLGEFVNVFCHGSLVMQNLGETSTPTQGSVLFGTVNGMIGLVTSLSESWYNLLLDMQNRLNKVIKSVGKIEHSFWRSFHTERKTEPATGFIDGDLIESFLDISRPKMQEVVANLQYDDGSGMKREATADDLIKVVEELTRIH

[3] = molecular target: T3, IKZF2 (Homo sapiens, UniProt Q96SW2+Q9UKS7); assay: as above; format: cell-based
T3 construct: effects of the compounds of the present disclosure on the expression of target proteins in cells; endogenous in cells; host or cells: human PBMCs (Milecell Biotechnologies)
T3 sequence (Q9UKS7 whole entry): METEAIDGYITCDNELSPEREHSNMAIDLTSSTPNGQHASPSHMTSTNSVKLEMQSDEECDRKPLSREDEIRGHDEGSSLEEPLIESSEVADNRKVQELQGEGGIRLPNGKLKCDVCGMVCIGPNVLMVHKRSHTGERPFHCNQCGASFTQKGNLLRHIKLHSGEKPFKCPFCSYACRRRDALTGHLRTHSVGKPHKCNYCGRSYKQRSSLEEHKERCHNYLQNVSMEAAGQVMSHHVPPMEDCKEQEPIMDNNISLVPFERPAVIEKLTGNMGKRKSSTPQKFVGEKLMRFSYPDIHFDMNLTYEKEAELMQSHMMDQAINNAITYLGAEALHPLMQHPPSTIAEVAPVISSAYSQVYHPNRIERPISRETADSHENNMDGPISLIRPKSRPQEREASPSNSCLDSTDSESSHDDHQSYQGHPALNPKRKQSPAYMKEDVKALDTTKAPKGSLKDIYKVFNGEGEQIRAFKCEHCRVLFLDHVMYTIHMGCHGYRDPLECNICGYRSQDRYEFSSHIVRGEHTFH
T3 sequence (Q96SW2 whole entry): as the sequence (Q96SW2 whole entry) above
T3 sequence (Q16531 whole entry partner): as the sequence (Q16531 whole entry partner) above

[4] = molecular target: T4, IKZF1 (Homo sapiens, UniProt Q13422+Q96SW2); assay: as above; format: cell-based
T4 construct: effects of the compounds of the present disclosure on the expression of target proteins in cells; endogenous in cells; host or cells: human PBMCs (Milecell Biotechnologies)
T4 sequence (Q13422 whole entry): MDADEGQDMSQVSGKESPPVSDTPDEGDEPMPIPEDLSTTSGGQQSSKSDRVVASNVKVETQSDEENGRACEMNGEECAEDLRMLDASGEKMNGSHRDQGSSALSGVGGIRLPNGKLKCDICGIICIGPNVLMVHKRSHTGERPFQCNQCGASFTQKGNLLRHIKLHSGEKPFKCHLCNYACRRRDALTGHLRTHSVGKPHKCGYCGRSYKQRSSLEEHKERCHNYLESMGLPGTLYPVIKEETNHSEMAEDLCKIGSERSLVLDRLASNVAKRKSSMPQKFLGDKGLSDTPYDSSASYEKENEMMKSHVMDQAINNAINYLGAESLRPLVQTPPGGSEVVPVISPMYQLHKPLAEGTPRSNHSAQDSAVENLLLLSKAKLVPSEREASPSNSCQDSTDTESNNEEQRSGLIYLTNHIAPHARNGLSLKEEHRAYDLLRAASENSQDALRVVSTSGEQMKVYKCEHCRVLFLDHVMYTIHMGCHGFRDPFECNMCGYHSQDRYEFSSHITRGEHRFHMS
T4 sequence (Q96SW2 whole entry): as the sequence (Q96SW2 whole entry) above
T4 sequence (Q16531 whole entry partner): as the sequence (Q16531 whole entry partner) above

[5] = molecular target: T5, IKZF3 (Homo sapiens, UniProt Q96SW2+Q9UKT9); assay: as above; format: cell-based
T5 construct: effects of the compounds of the present disclosure on the expression of target proteins in cells; endogenous in cells; host or cells: human PBMCs (Milecell Biotechnologies)
T5 sequence (Q9UKT9 whole entry): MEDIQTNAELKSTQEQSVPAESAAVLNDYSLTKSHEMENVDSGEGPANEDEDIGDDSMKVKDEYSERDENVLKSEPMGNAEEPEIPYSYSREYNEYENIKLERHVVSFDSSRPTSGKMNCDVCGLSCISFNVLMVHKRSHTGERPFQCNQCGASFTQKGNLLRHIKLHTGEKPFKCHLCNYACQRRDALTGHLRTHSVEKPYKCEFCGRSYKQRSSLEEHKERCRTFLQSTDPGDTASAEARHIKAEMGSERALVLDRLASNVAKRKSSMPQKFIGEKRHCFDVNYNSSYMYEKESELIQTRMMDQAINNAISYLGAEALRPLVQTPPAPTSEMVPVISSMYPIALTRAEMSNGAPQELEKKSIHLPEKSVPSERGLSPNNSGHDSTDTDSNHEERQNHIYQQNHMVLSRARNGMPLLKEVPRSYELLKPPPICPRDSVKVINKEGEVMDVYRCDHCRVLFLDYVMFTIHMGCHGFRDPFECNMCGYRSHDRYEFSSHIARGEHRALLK
T5 sequence (Q96SW2 whole entry): as the sequence (Q96SW2 whole entry) above
T5 sequence (Q16531 whole entry partner): as the sequence (Q16531 whole entry partner) above

[6] = molecular target: T6, WEE1 (Homo sapiens, UniProt P30291+Q96SW2); assay: as above; format: cell-based
T6 construct: effects of the compounds of the present disclosure on the expression of target proteins in cells; endogenous in cells; host or cells: human PBMCs (Milecell Biotechnologies)
T6 sequence (P30291 whole entry): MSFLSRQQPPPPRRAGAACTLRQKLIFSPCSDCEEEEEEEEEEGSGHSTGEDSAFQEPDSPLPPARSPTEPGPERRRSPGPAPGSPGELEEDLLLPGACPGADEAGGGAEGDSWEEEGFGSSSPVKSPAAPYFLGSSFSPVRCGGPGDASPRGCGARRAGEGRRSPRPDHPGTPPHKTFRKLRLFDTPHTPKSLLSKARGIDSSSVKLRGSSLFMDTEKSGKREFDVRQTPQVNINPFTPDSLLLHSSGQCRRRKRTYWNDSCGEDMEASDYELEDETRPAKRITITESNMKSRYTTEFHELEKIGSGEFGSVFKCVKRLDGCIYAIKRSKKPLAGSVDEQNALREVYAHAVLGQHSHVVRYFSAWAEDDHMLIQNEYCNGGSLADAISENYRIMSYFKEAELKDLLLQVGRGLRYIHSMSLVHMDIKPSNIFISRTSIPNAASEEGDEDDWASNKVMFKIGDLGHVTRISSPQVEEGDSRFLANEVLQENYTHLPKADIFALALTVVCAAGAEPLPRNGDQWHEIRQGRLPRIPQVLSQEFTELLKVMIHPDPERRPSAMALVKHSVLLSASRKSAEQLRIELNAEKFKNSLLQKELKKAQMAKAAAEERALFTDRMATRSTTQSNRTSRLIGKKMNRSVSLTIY
T6 sequence (Q96SW2 whole entry): as the sequence (Q96SW2 whole entry) above
T6 sequence (Q16531 whole entry partner): as the sequence (Q16531 whole entry partner) above

[7] = tested on: GSPT1; assay: as above; format: cell-based, Human
[8] = Western blot, 24 hours of compound treatment, compounds tested at 50 nM and 500 nM (concentration for the table not stated)
[9] = 24 hours treatment, compounds at 50 nM and 500 nM (concentration behind the class not stated)

T1 sequence (Q96SW2 whole entry): as the sequence (Q96SW2 whole entry) above

SMILES	inhibition at 0.5 µM [1]	inhibition at 2 µM [1]	CK1α substrate protein remaining % [2, 8]	IKZF2 substrate protein remaining % [3, 8]	IKZF 1 substrate protein remaining % [4, 8]	IKZF3 substrate protein remaining % [5, 8]	Wee1 substrate protein remaining % [6, 8]	GSPT1 substrate protein remaining % [7, 8]	CK1α substrate protein remaining % [2, 9]	IKZF2 substrate protein remaining % [3, 9]	IKZF 1 substrate protein remaining % [4, 9]	IKZF3 substrate protein remaining % [5, 9]	Wee1 substrate protein remaining % [6, 9]	GSPT1 substrate protein remaining % [7, 9]
O=C1CCC(N2Cc3c(CN4CC5CCC(C4)N5c4cccc(Cl)c4Cl)cccc3C2=S)C(=O)N1 (stereo not shown) [GT-08470, 3-(4-((8-(2,3-dichlorophenyl)-3,8-diazabicyclo[3.2.1]octan-3-yl)methyl)-1-thioxoisoindolin-2-yl)piperidine-2,6-dione]	20 to 30%	53 to 60%	B (80%< substrate protein remaining %≤ 100%)	B (80%< substrate protein remaining %≤ 100%)	B (80%< substrate protein remaining %≤ 100%)	B (80%< substrate protein remaining %≤ 100%)	B (80%< substrate protein remaining %≤ 100%)	A (0% ≤ substrate protein remaining % ≤ 80%)						
O=C1CCC(N2Cc3c(CN4CCN(c5ncc6ccsc6n5)CC4)cccc3C2=S)C(=O)N1 (stereo not shown) [GT-08927, 3-(4-((4-(thieno[2,3-d]pyrimidin-2-yl)piperazin-1-yl)methyl)-1-thioxoisoindolin-2-yl)piperidine-2,6-dione]	60 to 80%	80 to 100%							B (80%< substrate protein remaining %≤ 100%)	A (0% ≤ substrate protein remaining % ≤ 80%)	B (80%< substrate protein remaining %≤ 100%)	A (0% ≤ substrate protein remaining % ≤ 80%)	A (0% ≤ substrate protein remaining % ≤ 80%)	B (80%< substrate protein remaining %≤ 100%)
O=C1CCC(N2Cc3cc(CN4CCC(c5cccc6c(F)cccc56)CC4)ccc3C2=S)C(=O)N1 (stereo not shown) [GT-09275, 3-(5-((4-(5-fluoronaphthalen-1-yl)piperidin-1-yl)methyl)-1-thioxoisoindolin-2-yl)piperidine-2,6-dione]	30 to 40%	60 to 80%							B (80%< substrate protein remaining %≤ 100%)	B (80%< substrate protein remaining %≤ 100%)	B (80%< substrate protein remaining %≤ 100%)	B (80%< substrate protein remaining %≤ 100%)	B (80%< substrate protein remaining %≤ 100%)	A (0% ≤ substrate protein remaining % ≤ 80%)
CC(C)c1cc2c(C3=CCN(Cc4cccc5c4CN(C4CCC(=O)NC4=O)C5=S)CC3)ncnc2s1 (stereo not shown) [GT-08954, 3-(4-((4-(6-isopropylthieno[2,3-d]pyrimidin-4-yl)-3,6-dihydropyridin-1(2H)-yl)methyl)-1-thioxoisoindolin-2-yl)piperidine-2,6-dione]	40 to 53%	60 to 80%							B (80%< substrate protein remaining %≤ 100%)	B (80%< substrate protein remaining %≤ 100%)	B (80%< substrate protein remaining %≤ 100%)	B (80%< substrate protein remaining %≤ 100%)	A (0% ≤ substrate protein remaining % ≤ 80%)	A (0% ≤ substrate protein remaining % ≤ 80%)
O=C1CCC(N2Cc3cc(CN4CCN(C(c5ccccc5)c5ccncc5)CC4)ccc3C2=S)C(=O)N1 (stereo not shown) [GT-07733, 3-(5-((4-(phenyl(pyridin-4-yl)methyl)piperazin-1-yl)methyl)-1-thioxoisoindolin-2-yl)piperidine-2,6-dione]	60 to 80%	80 to 100%	B (80%< substrate protein remaining %≤ 100%)	B (80%< substrate protein remaining %≤ 100%)	B (80%< substrate protein remaining %≤ 100%)	A (0% ≤ substrate protein remaining % ≤ 80%)	A (0% ≤ substrate protein remaining % ≤ 80%)	A (0% ≤ substrate protein remaining % ≤ 80%)						
O=C1CCC(N2Cc3c(CN4CCN(c5c[nH]c6ncccc56)CC4)cccc3C2=S)C(=O)N1 (stereo not shown) [GT-08841, 3-(4-((4-(1H-pyrrolo[2,3-b]pyridin-3-yl)piperazin-1-yl)methyl)-1-thioxoisoindolin-2-yl)piperidine-2,6-dione]	60 to 80%	80 to 100%	B (80%< substrate protein remaining %≤ 100%)	B (80%< substrate protein remaining %≤ 100%)	B (80%< substrate protein remaining %≤ 100%)	B (80%< substrate protein remaining %≤ 100%)	A (0% ≤ substrate protein remaining % ≤ 80%)	A (0% ≤ substrate protein remaining % ≤ 80%)						
O=C1CCC(N2Cc3cc(CN4C5CC4CN(C(c4ccccc4)c4ccccc4)C5)ccc3C2=S)C(=O)N1 (stereo not shown) [GT-07738, 3-(5-((3-benzhydryl-3,6-diazabicyclo[3.1.1]heptan-6-yl)methyl)-1-thioxoisoindolin-2-yl)piperidine-2,6-dione]	53 to 60%	80 to 100%	B (80%< substrate protein remaining %≤ 100%)	A (0% ≤ substrate protein remaining % ≤ 80%)	A (0% ≤ substrate protein remaining % ≤ 80%)	B (80%< substrate protein remaining %≤ 100%)	B (80%< substrate protein remaining %≤ 100%)	A (0% ≤ substrate protein remaining % ≤ 80%)						
Cc1nc(N2CCN(Cc3cccc4c3CN(C3CCC(=O)NC3=O)C4=S)CC2)c2ccsc2n1 (stereo not shown) [GT-08922, 3-(4-((4-(2-methylthieno[2,3-d]pyrimidin-4-yl)piperazin-1-yl)methyl)-1-thioxoisoindolin-2-yl)piperidine-2,6-dione]	60 to 80%	80 to 100%							B (80%< substrate protein remaining %≤ 100%)	B (80%< substrate protein remaining %≤ 100%)	B (80%< substrate protein remaining %≤ 100%)	B (80%< substrate protein remaining %≤ 100%)	A (0% ≤ substrate protein remaining % ≤ 80%)	B (80%< substrate protein remaining %≤ 100%)

— patent EP4745135A1 (Gluetacs Therapeutics (Shanghai) Co., Ltd., priority 2023, dated 2025)
